Results on one molecule are retold here after patent US7449492B2, “Therapeutic agents—I” (priority 2000, dated 2008).

Experiment [1] deals with neonatal foreskin fibroblasts. Briefly: Killing by untreated leukocytes of drug-pretreated target cells. It counts as cell-based, human. To be noted: target cells treated with 60 ng/mL for 20 hr and washed before leukocytes; 100:1 ratio of effector:target cells. As to the method: (§1) Leukocytes obtained by lysis of human peripheral blood were added to 5000 MM96L human melanoma cells or 7000 neonatal foreskin fibroblasts per microtitre well at effector: target ratios of 1000, 100 and 10:1. The target cells had been treated with 60 ng/mL PEP008 for 20 hr beforehand, and washed and the medium replaced before the leukocytes were added. After 48 hr incubation with the leukocytes the cultures were washed and labelled with [3H]-thymidine for 2 hr. […] Untreated leukocytes had no effect on cell survival.

Experiment [2] deals with peripheral blood mononuclear cells (PBMCs). Kind of experiment: Phagocytosis with fluorescent beads. To be noted: whole heparinized blood, 30 min at 37° C. The class given is cell-based. As to the method: Phagocytosis by peripheral blood mononuclear cells (PBMCs) was assayed (Steinkamp et al., 1982) using 1 μm Fluoresbrite™ yellow-green fluorescent latex spheres (Polysciences, Inc., Warrington, Pa.). A sample of whole, heparinized blood was treated with drug and 5×10E7 fluorescent latex beads in 10 μL of PBS added per mL of suspension. Cells were incubated and maintained in suspension for 30 min by means of a shaker platform at 37° C. The stimulated and non-stimulated samples were then lysed to isolate PBMCs. The PBMCs were run on the flow cytometer measuring FITC (excitation at 488 nm, emission at 525±20 nm), gated for fluorescence (phagocytosed spheres) and light scatter (cell size).

The test system of experiment [3] is MM96L human melanoma cells. Briefly: Killing by untreated leukocytes of drug-pretreated target cells. The class given is cell-based. Conditions: target cells treated with 60 ng/mL for 20 hr and washed before leukocytes; 100:1 ratio of effector:target cells. As to the method: as §1
For experiment [4], the system named is neonatal foreskin fibroblasts. Kind of experiment: Leukocyte killing with drug present, [3H]-thymidine labelling. Conditions: 60 ng/mL with leukocytes, 48 hr; 100:1 ratio of effector:target cells. It counts as cell-based, human. The procedure:
(§2) Leukocytes obtained by lysis of human peripheral blood were added to 5000 MM96L human melanoma cells or 7000 neonatal foreskin fibroblasts per microtitre well at effector: target ratios of 1000, 100 and 10:1. Ing9 (60 ng/mL) was added and after 48 hr incubation the cultures were washed and labelled with [3H]-thymidine for 2 hr. […] Untreated leukocytes had no effect on cell survival.

Experiment [5] has as its system MM96L human melanoma cells. The experiment is described as above. The class given is cell-based. To be noted: 60 ng/mL with leukocytes, 48 hr; 100:1 ratio of effector:target cells. As to the method: as §2

Regarding `C/C=C(/C)C(=O)O[C@H]1C(C)=C[C@]23C(=O)[C@@H](C=C(COC(C)=O)[C@@H](O)[C@]12O)[C@H]1[C@@H](C[C@H]3C)C1(C)C` [PEP008, 20-O-acetyl-ingenol-3-angelate], the “survival of normal fibroblasts” value in experiment [1] and in experiment [4] was 100% in each case. Further, the “phagocytosis of fluorescent latex spheres in PBMCs” value in experiment [2] was “stimulate phagocytosis”. For the same molecule, the “survival of melanoma cells” value in experiment [3] is on record as 12%; in experiment [5], 9%.
